# Patent US6335355B1, “Crop protection products” (Syngenta Investment Corporation, priority 1995, dated 2002)
# Like-named read-outs stand apart in the source and are kept apart here.
# Columns and labels:
# [1] = tested on: Colletotrichum lagenarium; assay: Action against Colletotrichum lagenarium on Cucumis sativus L./foliar application; format: in vivo
# [2] = tested on: Colletotrichum lagenarium; assay: Action against Colletotrichum lagenarium on Cucumis sativus L./soil application; format: in vivo
# Cercospora nicotianae = assay: Action against Cercospora nicotianae on tobacco plants; format: in vivo
# Erysiphe graminis = assay: Action against Erysiphe graminis on barley
# Protocol: A1: Action gainst Erysiphe graminis on Barley
# a) Residual-protective Action Barley plants about 8 cm in height are sprayed to drip point with an aqueous spray mixture (max. 0.02% active ingredient) and are dusted 3 to 4 days later with conidia of the fungus. The infected plants are stood in a greenhouse at 22°. Fungus infestation is generally evaluated 10 days after infection.
# b) Systemic Action Barley plants about 8 cm in height are watered with an aqueous spray mixture (max. 0.002% active ingredient, based on the volume of the soil). […] The plants are dusted with conidia of the fungus 3 to 4 days later. The infected plants are stood in a greenhouse at 22°. Fungus infestation is generally evaluated 10 days after infection.
# Pyricularia oryzae = format: in vivo; conditions: Example B11
# [3] = Field test on chilli: action on crop yield; format: in vivo; conditions: Example B10, chillis harvested after the sixth spraying
# [4] = tested on: Cercospora sp. (leaf spot); assay: Field test on chilli: action against Cercospora sp. (leaf spot)
# Description: In a plot of land about 10 m^2 (test location: Cikampek, Java, Indonesia), chilli plants are sprayed a total of 7 times at intervals of about 7 days with 500-700 litres of spray mixture per hectare. Three days after the first spraying, the plants are infected artificially with the fungus.
# Evaluation is made by assessing infestation on the leaves after the sixth spraying.
# [5] = Example B3(a), 0.06 mg a.i. per liter (ppm)
# [6] = Example B3(a), 0.2 mg a.i. per liter (ppm)
# [7] = Example B9(a), 6 mg a.i. per liter (ppm)
# [8] = Example B3(b), 0.2 mg a.i. per liter (ppm)
# [9] = Example B9(b), 0.02 mg a.i. per liter (ppm)
# [10] = Example B9(b), 0.06 mg a.i. per liter (ppm)
# [11] = Example B7, 2 mg a.i. per liter (ppm)
# [12] = Example B7, 6 mg a.i. per liter (ppm)
# [13] = Example B5, 2 mg a.i. per liter (ppm)
# [14] = Example B5, 6 mg a.i. per liter (ppm)
# [15] = Example B1, 0.6 mg a.i. per liter (ppm)
# [16] = Example B1, 2 mg a.i. per liter (ppm)
# [17] = Example B1, 6 mg a.i. per liter (ppm)
compound,measurement,setting,value
"CO/C=C(/C(=O)OC)c1ccccc1Oc1cc(Oc2ccccc2C#N)ncn1 [compound IIF, methyl-(E)-2-{2-[6-(2-cyanophenoxy)pyrimidin4-yloxy]phenyl}-3-methoxyacrylate]",% action O (found),[1]; [5],5%
same,% action O (found),[1]; [6],9%
same,% action O (found),"[1]; Example B3(a), 0.6 mg a.i. per liter (ppm)",12%
same,% action O (found),"[1]; Example B3(a), 6 mg a.i. per liter (ppm)",17%
same,% action O (found),"[1]; Example B9(a), 2 mg a.i. per liter (ppm)",18%
same,% action O (found),[1]; [7],75%
same,% action O (found),[2]; [8],0%
same,% action O (found),"[2]; Example B3(b), 0.6 mg a.i. per liter (ppm)",9%
same,% action O (found),"[2]; Example B3(b), 2 mg a.i. per liter (ppm)",28%
same,% action O (found),"[2]; Example B3(b), 6 mg a.i. per liter (ppm)",66%
same,% action O (found),[2]; [9],1%
same,% action O (found),[2]; [10],5%
same,% action O (found),"[2]; Example B9(b), 0.6 mg a.i. per liter (ppm)",27%
same,% action O (found),"[2]; Example B9(b), 2 mg a.i. per liter (ppm)",61%
same,% action O (found),"[2]; Example B9(b), 6 mg a.i. per liter (ppm)",93%
"CC(C1CC1)C(O)(Cn1cncn1)c1ccc(Cl)cc1 (stereo not drawn) [compound IIC, α-(4-chlorophenyl)-α-(1-cyclopropylethyl)-1H-1,2,4-triazole-1-ethanol]",% action O (found),Cercospora nicotianae; [11],0%
same,% action O (found),Cercospora nicotianae; [12],0%
same,% action O (found),"Erysiphe graminis; Example B8, 6 mg a.i. per liter (ppm)",17%
same,% action O (found),"Erysiphe graminis; Example B8, 20 mg a.i. per liter (ppm)",33%
same,% action O (found),"Erysiphe graminis; Example B8, 60 mg a.i. per liter (ppm)",50%
"CCC1(C(=O)NC(C)c2ccc(Cl)cc2)C(C)C1(Cl)Cl [compound IIK, (1R,3S/1S,3R)-2,2-dichloro-N-[(R)-1-(4-chlorophenyl)ethyl]-1-ethyl-3-methylcyclo-propanecarboxamide]",% action O (found),Pyricularia oryzae; 0.02 mg a.i. per liter (ppm),0%
same,% action O (found),Pyricularia oryzae; 0.06 mg a.i. per liter (ppm),28%
same,% action O (found),Pyricularia oryzae; 0.2 mg a.i. per liter (ppm),47%
same,% action O (found),Pyricularia oryzae; 0.6 mg a.i. per liter (ppm),79%
same,% action O (found),Pyricularia oryzae; 2 mg a.i. per liter (ppm),83%
same,% action O (found),Pyricularia oryzae; 6 mg a.i. per liter (ppm),91%
"CC(C)(C)C(O)(CCc1ccc(Cl)cc1)Cn1cncn1 (stereo not drawn) [compound IIA, α-[2-(4-chlorophenyl)ethyl]-α-(1,1-dimethylethyl)-1H-1,2,4-trazole-1-ethanol]",% action O (found),Cercospora nicotianae; [13],0%
same,% action O (found),Cercospora nicotianae; [14],0%
manganese ethylenebis (dithiocarbamate) polymer-zinc complex [compound IIL],"Action on crop yield, % action O (found)",[3]; 100 mg a.i. per liter (ppm),8%
same,% action O (found),"[4]; Example B10, 100 mg a.i. per liter (ppm)",8%
"CC1(C)CCC(Cc2ccc(Cl)cc2)C1(O)Cn1cncn1 (stereo not shown) [compound IID, 5-(4-chlorobenzyl)-2,2-dimethyl-1-(1H-1,2,4-triazol-1-ylmethyl)-cyclopentanol]",% action O (found),Erysiphe graminis; [15],10%
same,% action O (found),Erysiphe graminis; [16],40%
same,% action O (found),Erysiphe graminis; [17],51%
same,% action O (found),"Erysiphe graminis; Example B1, 20 mg a.i. per liter (ppm)",65%
"O=C(O)c1cccc2nnsc12 [compound IA, benzothiadiazole-7-carboxylic acid]",% action O (found),Erysiphe graminis; [15],0%
same,% action O (found),Erysiphe graminis; [16],40%
same,% action O (found),Erysiphe graminis; [17],89%
same,% action O (found),"Erysiphe graminis; Example B2, 0.6 mg a.i. per liter (ppm)",14%
same,% action O (found),"Erysiphe graminis; Example B2, 2 mg a.i. per liter (ppm)",27%
same,% action O (found),[1]; [5],0%
same,% action O (found),[1]; [6],5%
same,% action O (found),"[1]; Example B3(a), 2 mg a.i. per liter (ppm)",22%
same,% action O (found),"[1]; Example B4, 0.2 mg a.i. per liter (ppm)",3%
same,% action O (found),"[1]; Example B4, 0.6 mg a.i. per liter (ppm)",51%
same,% action O (found),"[2]; Example B3(b), 0.006 mg a.i. per liter (ppm)",0%
same,% action O (found),"[2]; Example B3(b), 0.02 mg a.i. per liter (ppm)",40%
same,% action O (found),"[2]; Example B3(b), 0.06 mg a.i. per liter (ppm)",49%
same,% action O (found),[2]; [8],91%
"CO/N=C(/C(=O)OC)c1ccccc1COc1ccccc1C [compound IIG, methyl-(E)-2-methoximino-2-[α-(o-tolyloxy)-o-tolyl]acetate]",% action O (found),"[1]; Example B4, 2 mg a.i. per liter (ppm)",0%
same,% action O (found),"[1]; Example B4, 20 mg a.i. per liter (ppm)",41%
"CSC(=O)c1cccc2nnsc12 [compound ID, benzothiadiazole-7-carboxylic acid thiomethyl ester]","Action on crop yield, % action O (found)",[3]; 5 mg a.i. per liter (ppm),459%
same,% action O (found),"Cercospora nicotianae; Example B5, 0.2 mg a.i. per liter (ppm)",0%
same,% action O (found),Cercospora nicotianae; [13],17%
same,% action O (found),Cercospora nicotianae; [14],55%
same,% action O (found),"Cercospora nicotianae; Example B5, 20 mg a.i. per liter (ppm)",78%
same,% action O (found),"Cercospora nicotianae; Example B7, 0.2 mg a.i. per liter (ppm)",0%
same,% action O (found),Cercospora nicotianae; [11],17%
same,% action O (found),Cercospora nicotianae; [12],55%
same,% action O (found),"Cercospora nicotianae; Example B7, 20 mg a.i. per liter (ppm)",78%
same,% action O (found),"Erysiphe graminis; Example B8, 0.6 mg a.i. per liter (ppm)",0%
same,% action O (found),"Erysiphe graminis; Example B8, 2 mg a.i. per liter (ppm)",33%
same,% action O (found),Pyricularia oryzae; 6 mg a.i. per liter (ppm),15%
same,% action O (found),"[4]; Example B10, 5 mg a.i. per liter (ppm)",76%
same,% action O (found),"[1]; Example B9(a), 0.06 mg a.i. per liter (ppm)",16%
same,% action O (found),"[1]; Example B9(a), 0.2 mg a.i. per liter (ppm)",22%
same,% action O (found),[1]; [7],60%
same,% action O (found),"[2]; Example B9(b), 0.006 mg a.i. per liter (ppm)",0%
same,% action O (found),[2]; [9],6%
same,% action O (found),[2]; [10],23%
same,% action O (found),"[2]; Example B9(b), 0.2 mg a.i. per liter (ppm)",36%
